From ChEMBL document CHEMBL1201862, “PubChem BioAssay data set” (2004)
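Growth conditions: 96-well plates. Treatment: test compound, 48 hours, 5 concentrations. Analysis: linear interpolation between bracketing concentrations; unreached endpoints set to highest concentration. Abbreviation: GI50, concentration required for 50% inhibition of growth.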 Active and inactive are the calls of the source. No stated cut-off is given here; in the data, active = GI50 up to about 1.1 µM and inactive = higher.

How the values were obtained:
Experiment in all cases: growth of human tumour cells (NCI), 48 h
A498 = system: A498
ACHN = system: ACHN
COLO 205 = system: COLO 205
HCT-116 = system: HCT-116
HT-29 = system: HT-29
M14 = system: M14
NCI-H23 = system: NCI-H23
NCI-H460 = system: NCI-H460
OVCAR-3 = system: OVCAR-3
OVCAR-8 = system: OVCAR-8
RXF 393 = system: RXF 393
SN12C = system: SN12C
SNB-19 = system: SNB-19
UACC-257 = system: UACC-257
UACC-62 = system: UACC-62
MOLT-4 = system: MOLT-4

Measured: GI50

CCCCCCCCCCn1cccc1/C=C/c1ccc(/C=C/c2cccn2CCCCCCCCCC)cc1
inactive: A498 > 100 µM | ACHN > 100 µM | COLO 205 > 100 µM | HCT-116 > 100 µM | HT-29 > 100 µM | M14 > 100 µM | NCI-H23 > 100 µM | NCI-H460 > 100 µM | OVCAR-3 > 100 µM | OVCAR-8 > 100 µM | RXF 393 > 100 µM | SN12C > 100 µM | SNB-19 > 100 µM | UACC-257 > 100 µM | UACC-62 > 100 µM

O=C1c2ccccc2C(=O)C1C(c1ccc(F)cc1)C1C(=O)c2ccccc2C1=O
inactive: ACHN > 100 µM | COLO 205 > 100 µM | HCT-116 > 100 µM | HT-29 > 100 µM | M14 > 100 µM | MOLT-4 59.4 µM | NCI-H23 > 100 µM | NCI-H460 > 100 µM | OVCAR-3 > 100 µM | OVCAR-8 > 100 µM | RXF 393 24.8 µM | SN12C > 100 µM | SNB-19 > 100 µM | UACC-257 > 100 µM | UACC-62 > 100 µM

COc1ccc(Nc2nc3cc(C(F)(F)F)ccc3nc2-c2ccccc2)cc1OC
inactive: A498 52.1 µM | ACHN 30.6 µM | COLO 205 29.3 µM | HCT-116 12.6 µM | HT-29 46.7 µM | M14 38.6 µM | MOLT-4 > 100 µM | NCI-H23 25.7 µM | NCI-H460 27.7 µM | OVCAR-3 18.7 µM | OVCAR-8 25.8 µM | RXF 393 11.9 µM | SN12C 39.7 µM | UACC-257 27.2 µM | UACC-62 27.4 µM

Cc1cc(C)nc(NS(=O)(=O)c2ccc(Nc3c4ccccc4nc4c(C(=O)Nc5ccc(S(=O)(=O)Nc6cc(C)on6)cc5)ccc(Cl)c34)cc2)n1
inactive: A498 17.2 µM | ACHN 36.2 µM | HCT-116 17.7 µM | HT-29 23.4 µM | M14 20.1 µM | MOLT-4 19.5 µM | NCI-H23 20.3 µM | NCI-H460 22 µM | OVCAR-3 17 µM | OVCAR-8 26.4 µM | RXF 393 14.8 µM | SN12C 21.3 µM | SNB-19 22.4 µM | UACC-257 28.9 µM | UACC-62 26.4 µM

CN(C)/N=N/c1c[nH]nc1C(N)=O
inactive: A498 > 100 µM | ACHN 76.7 µM | COLO 205 > 100 µM | HCT-116 > 100 µM | HT-29 > 100 µM | M14 > 100 µM | MOLT-4 > 100 µM | NCI-H23 > 100 µM | NCI-H460 > 100 µM | OVCAR-3 > 100 µM | OVCAR-8 > 100 µM | SN12C > 100 µM | SNB-19 > 100 µM | UACC-257 > 100 µM | UACC-62 16.2 µM

CC1=Nn2c(nnc2-c2ccc(N)cc2)NC(C)(C)C1
inactive: A498 > 100 µM | ACHN > 100 µM | COLO 205 > 100 µM | HT-29 > 100 µM | M14 > 100 µM | MOLT-4 > 100 µM | NCI-H23 > 100 µM | NCI-H460 > 100 µM | OVCAR-3 > 100 µM | SNB-19 > 100 µM | UACC-257 > 100 µM | UACC-62 > 100 µM

C=CCOC(C)n1c(C)c(Br)c(=O)[nH]c1=O (stereo unspecified)
inactive: A498 > 100 µM | ACHN > 100 µM | COLO 205 > 100 µM | HCT-116 > 100 µM | HT-29 > 100 µM | MOLT-4 > 100 µM | NCI-H23 > 100 µM | NCI-H460 > 100 µM | OVCAR-3 > 100 µM | OVCAR-8 > 100 µM | RXF 393 > 100 µM | SN12C > 100 µM | SNB-19 > 100 µM | UACC-257 > 100 µM | UACC-62 > 100 µM

CCCCCCCCCCCc1cc(=O)c2c(O)cccc2o1
inactive: ACHN > 100 µM | COLO 205 > 100 µM | HCT-116 41.9 µM | HT-29 53.7 µM | M14 64 µM | MOLT-4 30.3 µM | NCI-H23 > 100 µM | NCI-H460 79.1 µM | OVCAR-3 > 100 µM | OVCAR-8 > 100 µM | RXF 393 70.6 µM | SN12C > 100 µM | SNB-19 > 100 µM | UACC-257 36 µM | UACC-62 > 100 µM

COC12OCCN(C)C1=CC(=O)C1=NNC(C)C12 (stereo unspecified)
inactive: A498 > 100 µM | COLO 205 > 100 µM | HCT-116 > 100 µM | HT-29 > 100 µM | M14 > 100 µM | MOLT-4 > 100 µM | NCI-H23 > 100 µM | NCI-H460 > 100 µM | OVCAR-3 > 100 µM | OVCAR-8 > 100 µM | RXF 393 > 100 µM | SN12C > 100 µM | UACC-257 > 100 µM | UACC-62 > 100 µM

CCc1ccc(Cc2ccc(CC)c(NC(=O)C(=O)Cc3nc4ccccc4nc3C)c2CC)c(CC)c1NC(=O)C(=O)Cc1nc2ccccc2nc1C
inactive: A498 > 100 µM | ACHN 61.2 µM | COLO 205 > 100 µM | HCT-116 52.5 µM | M14 > 100 µM | MOLT-4 40.6 µM | NCI-H23 > 100 µM | NCI-H460 > 100 µM | OVCAR-3 15 µM | OVCAR-8 > 100 µM | RXF 393 41.4 µM | SNB-19 45.1 µM | UACC-257 > 100 µM | UACC-62 > 100 µM

COc1ccc(C=C(c2ccc(OCc3ccccc3)cc2)c2ccc(OCc3ccccc3)cc2)cc1
inactive: ACHN > 100 µM | COLO 205 > 100 µM | HT-29 > 100 µM | M14 > 100 µM | NCI-H23 > 100 µM | NCI-H460 > 100 µM | OVCAR-3 > 100 µM | OVCAR-8 > 100 µM | RXF 393 > 100 µM | SN12C > 100 µM | SNB-19 > 100 µM | UACC-257 > 100 µM | UACC-62 > 100 µM

NC(CCCNCc1ccccc1)C(=O)O (stereo unspecified)
inactive: A498 > 100 µM | ACHN > 100 µM | COLO 205 > 100 µM | HCT-116 > 100 µM | HT-29 > 100 µM | M14 > 100 µM | MOLT-4 > 100 µM | NCI-H23 > 100 µM | NCI-H460 > 100 µM | OVCAR-3 > 100 µM | OVCAR-8 > 100 µM | SN12C > 100 µM | SNB-19 > 100 µM | UACC-257 > 100 µM | UACC-62 > 100 µM

Cc1c2ccncc2c(C)c2c1[nH]c1ccc(OC(C)(C)C)cc12
inactive: A498 12.2 µM | COLO 205 1.47 µM | HCT-116 1.67 µM | HT-29 2.29 µM | M14 4.06 µM | MOLT-4 1.67 µM | NCI-H23 5.36 µM | NCI-H460 1.93 µM | OVCAR-3 1.73 µM | OVCAR-8 2.51 µM | SNB-19 2.47 µM | UACC-257 1.97 µM | UACC-62 2.31 µM

O=C(O)c1cc(S(=O)(=O)N/N=C\c2c3ccccc3[n+]([O-])c3ccccc23)ccc1O
inactive: A498 14.1 µM | ACHN 18.6 µM | COLO 205 15.1 µM | HCT-116 7.55 µM | HT-29 19.5 µM | M14 17.1 µM | MOLT-4 3.8 µM | NCI-H23 8.04 µM | NCI-H460 5.96 µM | OVCAR-3 40.1 µM | OVCAR-8 12.7 µM | SN12C 17.9 µM | SNB-19 31.6 µM | UACC-257 26.1 µM | UACC-62 8.69 µM
